System: HSSY-II tumor spheroid viability
Experiment: Anticancer human tumor HSSY-II cell line growth inhibition;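 further: spheroids exposed to compounds for seven days before reading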;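 on viability, T/C: percent of DMSO vehicle control viability so 100% = untreated level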
Settings: spheroids with HUVEC and MSC; for IC50: curve of first compound; for viability, T/C: stronger effect = lower value
Excerpt: Multicellular complex tumor spheroid response to DNA repair inhibitors in combination with DNA-damaging drugs
This study explores the anticancer activities of DNA-damaging drugs and inhibitors of DNA damage repair, both as single agents and in combinations. Complex tumor spheroids comprised of malignant cells, endothelial cells and mesenchymal stem cells served as an in vitro model for human solid tumors. This model system incorporates physiologically relevant features and patient-derived or established malignant cell lines with clinically relevant genetic alterations from many tumor types. Twenty-six patient-derived or established malignant cell lines were evaluated representing sarcoma, melanoma, small cell lung cancer (SCLC), non-small cell lung cancer (NSCLC), as well as bladder, ovarian and pancreatic cancers. The concentration ranges selected for each drug and investigational agent were based upon clinically achievable concentrations if the clinical Cmax of the agent was known.
Compounds. The drugs and compounds olaparib (NSC753686), talazoparib (NSC767125), berzosertib (NSC777718), elimusertib (NSC800525), nedisertib (NSC802822), VX-984 (NSC792969), AZD-1390 (NSC803789), temozolomide (NSC362856), topotecan (NSC609699), trabectedin (NSC813783), staurosporine (NSC755774), and gemcitabine (NSC613327) were obtained from the National Cancer Institute (NCI) Developmental Therapeutics Program Chemical Repository. The FDA-approved anticancer drug set is available from the Developmental Therapeutics Program at https://dtp.cancer.gov/organization/dscb/obtaining/available_plates.htm. […] The stock solutions were prepared in dimethyl sulfoxide (DMSO, Sigma-Aldrich, St. Louis, MO, cat. D2650) at 400-fold the tested concentration and stored at -70 degrees C. Prior to their use, the stock solutions were diluted in fresh medium and the final DMSO concentration in the assay was 0.25% (v/v). All drugs and investigational agents were tested over a range starting from a high concentration at or near the clinical Cmax and decreasing in half-log increments. If the clinical Cmax for an agent had not been determined, the highest concentration tested was 10 microM.
Cell Lines. The patient-derived cancer cell (PDC) lines: 156681-154-R-J1-PDC, 283228-195-R-J1-PDC, 287954-098-R-J1-PDC, 292921-168-R-J2-PDC, 349418-098-R-PDC, 425362-245-T-J1-PDC, 556581-035-R-J1-PDC, and BL0293-F563-PDC were received from the NCI Patient-Derived Models Repository (PDMR, https://pdmr.cancer.gov). The established cell lines HS-SY-2 (RRID:CVCL_8719), MPNST, and SYO-1 (RRID:CVCL_7146) were obtained from the Sloan Kettering Institute. The alveolar soft parts sarcoma cell line ASPS-1 (RRID:CVCL_S738) was established at the NCI and grown from internal seed stocks. The following established cell lines were purchased from the American Type Culture Collection (ATCC, Manassas, VA): G-401 (ATCC, cat. CRL-1441, RRID:CVCL_0270), SW982 (ATCC, cat. HTB-93, RRID:CVCL_1734), VA-ES-BJ (ATCC, cat. CRL-2138, RRID:CVCL_1785), NCI-H719 (ATCC, cat. CRL-5837, RRID:CVCL_1582), NCI-H196 (ATCC, cat. CRL-5823, RRID:CVCL_1509), NCI-H841 (ATCC, cat. CRL-5845, RRID:CVCL_1595), NCI-H1618 (ATCC, cat. CRL-5879, RRID:CVCL_1480), NCI-H1876 (ATCC, cat. CRL-5902, RRID:CVCL_1503), DMS 114 (ATCC, cat. CRL-2066; RRID:CVCL_1174), NCI-H211 (ATCC, cat. CRL-5824; RRID:CVCL_1529), and SW 1271 (ATCC, cat. CRL-2177, RRID:CVCL_1716). The small cell lung cancer cell line COR-L88 was purchased from Sigma-Aldrich (cat. 92031917-1VL, RRID:CVCL_1141). The non-small cell lung cancer cell lines NCI-H226 (RRID:CVCL_1544) and NCI-H322M (RRID:CVCL_1557) were established at the NCI and grown from internal seed stocks. Pooled donor human umbilical vein endothelial cells (HUVEC, Lonza, cat. CC-2519) and human mesenchymal stem cells (hMSC, Lonza, cat. PT-2501) were purchased from Lonza (Walkersville, MD).
Cell Culture. All cells were maintained in an incubator at 37 degrees C and 5% CO2 with 95% humidity. […]

`Cc1cc(C)c(CNC(=O)c2cc(-c3ccc(CN4CCOCC4)cc3)cc3c2cnn3C2CCCC2)c(=O)[nH]1` + CC[C@@]1(O)C(=O)OCc2c1cc1n(c2=O)Cc2cc3c(CN(C)C)c(O)ccc3nc2-1 showed an IC50 (second compound 0.003 µM) greater than 10 µM, an IC50 (second compound 0.00949 µM) of less than 0.0316 µM and an IC50 (second compound 0.03 µM) of less than 0.0316 µM. For the same compound, the IC50 (second compound 0.0949 µM) was less than 0.0316 µM, the IC50 (second compound 0.3 µM) was less than 0.0316 µM and the viability, T/C (second compound 0.003 µM, first compound 0.0316 µM) was 79.2%. It also gave a viability, T/C (second compound 0.003 µM, first compound 0.1 µM) of 81%, a viability, T/C (second compound 0.003 µM, first compound 0.316 µM) of 81.3% and a viability, T/C (second compound 0.003 µM, first compound 1 µM) of 81.9%. It also gave a viability, T/C (second compound 0.003 µM, first compound 3.16 µM) of 79.1%, a viability, T/C (second compound 0.003 µM, first compound 10 µM) of 64% and a viability, T/C (second compound 0.00949 µM, first compound 0.0316 µM) of 39.4%. It also gave a viability, T/C (second compound 0.00949 µM, first compound 0.1 µM) of 40.1%, a viability, T/C (second compound 0.00949 µM, first compound 0.316 µM) of 42.9% and a viability, T/C (second compound 0.00949 µM, first compound 1 µM) of 47.4%. For the same compound, the viability, T/C (second compound 0.00949 µM, first compound 3.16 µM) was 38%, the viability, T/C (second compound 0.00949 µM, first compound 10 µM) was 49.7% and the viability, T/C (second compound 0.03 µM, first compound 0.0316 µM) was 6.06%. The viability, T/C (second compound 0.03 µM, first compound 0.1 µM) was 7.28%, the viability, T/C (second compound 0.03 µM, first compound 0.316 µM) was 7.77% and the viability, T/C (second compound 0.03 µM, first compound 1 µM) was 9.15%. The viability, T/C (second compound 0.03 µM, first compound 3.16 µM) was 9.78%, the viability, T/C (second compound 0.03 µM, first compound 10 µM) was 11.9% and the viability, T/C (second compound 0.0949 µM, first compound 0.0316 µM) was 6.68%. The viability, T/C (second compound 0.0949 µM, first compound 0.1 µM) was 11.9%, the viability, T/C (second compound 0.0949 µM, first compound 0.316 µM) was 7.28% and the viability, T/C (second compound 0.0949 µM, first compound 1 µM) was 7.31%. For the same compound, the viability, T/C (second compound 0.0949 µM, first compound 3.16 µM) was 8.02%, the viability, T/C (second compound 0.0949 µM, first compound 10 µM) was 9.19% and the viability, T/C (second compound 0.3 µM, first compound 0.0316 µM) was 4.56%. The viability, T/C (second compound 0.3 µM, first compound 0.1 µM) was 4.19%, the viability, T/C (second compound 0.3 µM, first compound 0.316 µM) was 4.75% and the viability, T/C (second compound 0.3 µM, first compound 1 µM) was 5.11%. It also gave a viability, T/C (second compound 0.3 µM, first compound 3.16 µM) of 6.37% and a viability, T/C (second compound 0.3 µM, first compound 10 µM) of 7.28%.

`Cc1sc2c(c1C)C(c1ccc(Cl)cc1)=NC(CC(=O)Nc1ccc(O)cc1)c1nnc(C)n1-2` (stereo not given) + CC[C@@]1(O)C(=O)OCc2c1cc1n(c2=O)Cc2cc3c(CN(C)C)c(O)ccc3nc2-1 was tested, and the IC50 (second compound 0.003 µM) was 0.0909 µM, the IC50 (second compound 0.00949 µM) was less than 0.00949 µM and the IC50 (second compound 0.03 µM) was less than 0.00949 µM. It also gave an IC50 (second compound 0.0949 µM) of less than 0.00949 µM, an IC50 (second compound 0.3 µM) of less than 0.00949 µM and a viability, T/C (second compound 0.003 µM, first compound 0.00949 µM) of 78.6%. For the same compound, the viability, T/C (second compound 0.003 µM, first compound 0.03 µM) was 70.5%, the viability, T/C (second compound 0.003 µM, first compound 0.0949 µM) was 49.2% and the viability, T/C (second compound 0.003 µM, first compound 0.3 µM) was 23.5%. The viability, T/C (second compound 0.003 µM, first compound 0.949 µM) was 9.78%, the viability, T/C (second compound 0.003 µM, first compound 3 µM) was 7.01% and the viability, T/C (second compound 0.00949 µM, first compound 0.00949 µM) was 37.7%. It also gave a viability, T/C (second compound 0.00949 µM, first compound 0.03 µM) of 35.2%, a viability, T/C (second compound 0.00949 µM, first compound 0.0949 µM) of 21.8% and a viability, T/C (second compound 0.00949 µM, first compound 0.3 µM) of 15.4%. It also gave a viability, T/C (second compound 0.00949 µM, first compound 0.949 µM) of 8.01%, a viability, T/C (second compound 0.00949 µM, first compound 3 µM) of 4.79% and a viability, T/C (second compound 0.03 µM, first compound 0.00949 µM) of 7.22%. The viability, T/C (second compound 0.03 µM, first compound 0.03 µM) was 6.32%, the viability, T/C (second compound 0.03 µM, first compound 0.0949 µM) was 6.41% and the viability, T/C (second compound 0.03 µM, first compound 0.3 µM) was 5.13%. The viability, T/C (second compound 0.03 µM, first compound 0.949 µM) was 2.41%, the viability, T/C (second compound 0.03 µM, first compound 3 µM) was 2.5% and the viability, T/C (second compound 0.0949 µM, first compound 0.00949 µM) was 5.51%. For the same compound, the viability, T/C (second compound 0.0949 µM, first compound 0.03 µM) was 5.61%, the viability, T/C (second compound 0.0949 µM, first compound 0.0949 µM) was 5.13% and the viability, T/C (second compound 0.0949 µM, first compound 0.3 µM) was 4.3%. It also gave a viability, T/C (second compound 0.0949 µM, first compound 0.949 µM) of 2.91%, a viability, T/C (second compound 0.0949 µM, first compound 3 µM) of 2.35% and a viability, T/C (second compound 0.3 µM, first compound 0.00949 µM) of 4.66%. It also gave a viability, T/C (second compound 0.3 µM, first compound 0.03 µM) of 4.16%, a viability, T/C (second compound 0.3 µM, first compound 0.0949 µM) of 4.31% and a viability, T/C (second compound 0.3 µM, first compound 0.3 µM) of 3.08%. For the same compound, the viability, T/C (second compound 0.3 µM, first compound 0.949 µM) was 1.91% and the viability, T/C (second compound 0.3 µM, first compound 3 µM) was 0.64%.
